Source: patent US10646489B2, “Compositions and methods for increasing energy metabolism” (NuSirt Sciences, Inc., priority 2012, dated 2020)

Experiments:
3T3-L1 adipocytes = experiment: Glucose utilization (extracellular acidification response to glucose injection) in 3T3-L1 adipocytes / adipocytes; type: cell-based; conditions: 3T3-L1 cells; leucine alone; p<0.05
Method: Glucose utilization was measured as extracellular acidification response to glucose injection. *p=0.05. […] Treatment with 0.5 mM leucine corresponds to a circulating level of the same molarity achieved by administering about 1,125 mg of dietary leucine to a human subject. Treatment with 0.25 mM leucine corresponds to a circulating level of the same molarity achieved by administering about 300 mg of dietary leucine to a human subject.

diet-induced obese mouse [1] = experiment: Post-prandial glucose, insulin and HOMAIR in the diet-induced obese mouse; type: in vivo; conditions: 7 days of treatment, leucine 24 g/kg diet, icariin 25 mg/kg diet
Method: The interactive effects of icariin, a flavanol with specific PDE5 inhibitory properties, on glycemia and insulin sensitivity were assessed in the diet-induced obese mouse, which can be used as a murine model of type 2 diabetes. Male C57/BL6 mice were placed on standard low-fat chow (control; 10% energy from fat) or high fat (60% energy from fat, Research Diets # D12492, Research Diets, Inc, New Brunswick, N.J.) at six weeks of age to induce insulin resistance. […], with 10 animals per group: Low fat diet (LFD) control; High fat diet (HFD) control; HFD+leucine (24 g/kg diet, a two-fold increase over control levels)1 HFD+leucine (24 g/kg diet)+icariin (25 mg/kg diet). […] Mice were fasted overnight (˜16 hours) prior to measurement of fasting blood glucose, insulin and glucose tolerance. Glucose tolerance was determined following measurement of fasting glucose via intraperitoneal administration of glucose (1.2 g/kg body weight) followed by blood glucose measurement at 15, 30, 60, 90 and 120 minutes. Post-prandial glucose was measured within one hour of cessation of eating. Insulin tolerance was measured via an insulin tolerance test (ITT). Food was removed 4-6 hours prior to ITT, and baseline blood glucose measured. The mice were then injected intraperitoneally with insulin (1.2 U/kg body weight) and blood glucose was measured 15, 30, 60, 90 and 120 minutes following insulin injection. The homeostasis model assessment of insulin resistance (HOMAIR) was used as a screening index of changes in insulin sensitivity. HOMAIR is calculated via standard formula from fasting plasma insulin and glucose as follows: HOMAIR=[Insulin (uU/mL)×glucose (mM)]/22.5. The plasma glucose and insulin concentrations were measured using the Glucose Assay Kit from Biovision (Milpitas, Calif.) and the Insulin kit from Millipore (Billerica, Mass.), respectively. CRP levels in plasma were determined by ELISA (CRP: Life Diagnostics, West Chester, Pa.).

C2C12 myotubes = experiment: Fatty acid oxidation (O2 consumption response to palmitate injection) in C2C12 myotubes / muscle cells; type: cell-based; conditions: C2C12 myotubes; sildenafil 1 nM (change from baseline) or leucine 0.5 mM alone
Method: Fatty acid oxidation was measured as O2 consumption response to palmitate injection and is expressed as % change from pre-injection baseline. […] Data expressed as % change from control value. *p=0.013; **p=0.015. The output of the pathways can be measured using one or more methods, disclosed herein and/or known in the art. […] Mitochondrial biogenesis can be measured using a mitochondrial probe by using fluorescence. AMPK activity can be determined by measuring AMPK phosphorylation via an ELISA assay or by Western blot. Sirt1 activity can be determined by measuring deacetylation of a substrate, which can be detected using a fluorophore. […] Treatment with 0.5 mM leucine corresponds to a circulating level of the same molarity achieved by administering about 1,125 mg of dietary leucine to a human subject. Treatment with 0.25 mM leucine corresponds to a circulating level of the same molarity achieved by administering about 300 mg of dietary leucine to a human subject.

diet-induced obese mouse [2] = experiment: Fasting blood glucose, insulin and HOMAIR in the diet-induced obese mouse; type: in vivo; conditions: 6 week treatment
Method: The interactive effects of icariin, a flavanol with specific PDE5 inhibitory properties, on glycemia and insulin sensitivity were assessed in the diet-induced obese mouse, which can be used as a murine model of type 2 diabetes. Male C57/BL6 mice were placed on standard low-fat chow (control; 10% energy from fat) or high fat (60% energy from fat, Research Diets # D12492, Research Diets, Inc, New Brunswick, N.J.) at six weeks of age to induce insulin resistance. […] The animals were then randomized to the following diets for an additional six weeks, with 10 animals per group: Low fat diet (LFD) control; High fat diet (HFD) control; HFD+leucine (24 g/kg diet, a two-fold increase over control levels)1 HFD+leucine (24 g/kg diet)+icariin (25 mg/kg diet). […] Mice were fasted overnight (˜16 hours) prior to measurement of fasting blood glucose, insulin and glucose tolerance. Glucose tolerance was determined following measurement of fasting glucose via intraperitoneal administration of glucose (1.2 g/kg body weight) followed by blood glucose measurement at 15, 30, 60, 90 and 120 minutes. Post-prandial glucose was measured within one hour of cessation of eating. Insulin tolerance was measured via an insulin tolerance test (ITT). Food was removed 4-6 hours prior to ITT, and baseline blood glucose measured. The mice were then injected intraperitoneally with insulin (1.2 U/kg body weight) and blood glucose was measured 15, 30, 60, 90 and 120 minutes following insulin injection. The homeostasis model assessment of insulin resistance (HOMAIR) was used as a screening index of changes in insulin sensitivity. HOMAIR is calculated via standard formula from fasting plasma insulin and glucose as follows: HOMAIR=[Insulin (uU/mL)×glucose (mM)]/22.5. The plasma glucose and insulin concentrations were measured using the Glucose Assay Kit from Biovision (Milpitas, Calif.) and the Insulin kit from Millipore (Billerica, Mass.), respectively. CRP levels in plasma were determined by ELISA (CRP: Life Diagnostics, West Chester, Pa.).

diet-induced obese mouse [3] = experiment: Liver mass in the diet-induced obese mouse; type: in vivo; conditions: 6 week treatment
Method: The interactive effects of icariin, a flavanol with specific PDE5 inhibitory properties, on glycemia and insulin sensitivity were assessed in the diet-induced obese mouse, which can be used as a murine model of type 2 diabetes. Male C57/BL6 mice were placed on standard low-fat chow (control; 10% energy from fat) or high fat (60% energy from fat, Research Diets # D12492, Research Diets, Inc, New Brunswick, N.J.) at six weeks of age to induce insulin resistance. […] The animals were then randomized to the following diets for an additional six weeks, with 10 animals per group: Low fat diet (LFD) control; High fat diet (HFD) control; HFD+leucine (24 g/kg diet, a two-fold increase over control levels)1 HFD+leucine (24 g/kg diet)+icariin (25 mg/kg diet). […] A chronic high fat diet is associated with other deleterious consequences. For example, a chronic high fat diet can increase liver mass, likely resulting from fatty accumulation in the liver. Chronic high fat feeding is also associated with chronic inflammation, which can contribute to a number of diseases. To determine the effects of leucine or leucine+icariin administration on additional consequences of high fat feeding, liver mass and C-reactive protein (a biomarker of inflammation) were assessed in all experimental groups at the end of the 6 week study. […] HFD, FIG. 26). […]

leucine
glucose utilization, agent alone (3T3-L1 adipocytes): 48.6% | reduction in post-prandial glucose vs. untreated HFD mice (diet-induced obese mouse [1]): no independent effect | fatty acid oxidation, agent alone (C2C12 myotubes): 73% | reduction in HOMAIR vs. untreated HFD mice (diet-induced obese mouse [2]): ~30% | reduction in circulating insulin during fasting vs. untreated HFD mice (diet-induced obese mouse [2]): ~25% | reduction in fasting glucose vs. untreated HFD mice (diet-induced obese mouse [2]): ~20% | reduction in liver mass vs. untreated HFD mice (diet-induced obese mouse [3]): ~10%
